Reference: patent US12552770B2, “Compounds for treating respiratory disease” (TMEM16A Limited, priority 2020, dated 2026)

Molecular target: T1, human TMEM16A (TMEM16Aabc variant) (Homo sapiens, UniProt Q5XXA6, DEL476-501)
T1 sequence (Q5XXA6 with tags, fused parts or gaps isoform Q5XXA6-5 DEL539-564): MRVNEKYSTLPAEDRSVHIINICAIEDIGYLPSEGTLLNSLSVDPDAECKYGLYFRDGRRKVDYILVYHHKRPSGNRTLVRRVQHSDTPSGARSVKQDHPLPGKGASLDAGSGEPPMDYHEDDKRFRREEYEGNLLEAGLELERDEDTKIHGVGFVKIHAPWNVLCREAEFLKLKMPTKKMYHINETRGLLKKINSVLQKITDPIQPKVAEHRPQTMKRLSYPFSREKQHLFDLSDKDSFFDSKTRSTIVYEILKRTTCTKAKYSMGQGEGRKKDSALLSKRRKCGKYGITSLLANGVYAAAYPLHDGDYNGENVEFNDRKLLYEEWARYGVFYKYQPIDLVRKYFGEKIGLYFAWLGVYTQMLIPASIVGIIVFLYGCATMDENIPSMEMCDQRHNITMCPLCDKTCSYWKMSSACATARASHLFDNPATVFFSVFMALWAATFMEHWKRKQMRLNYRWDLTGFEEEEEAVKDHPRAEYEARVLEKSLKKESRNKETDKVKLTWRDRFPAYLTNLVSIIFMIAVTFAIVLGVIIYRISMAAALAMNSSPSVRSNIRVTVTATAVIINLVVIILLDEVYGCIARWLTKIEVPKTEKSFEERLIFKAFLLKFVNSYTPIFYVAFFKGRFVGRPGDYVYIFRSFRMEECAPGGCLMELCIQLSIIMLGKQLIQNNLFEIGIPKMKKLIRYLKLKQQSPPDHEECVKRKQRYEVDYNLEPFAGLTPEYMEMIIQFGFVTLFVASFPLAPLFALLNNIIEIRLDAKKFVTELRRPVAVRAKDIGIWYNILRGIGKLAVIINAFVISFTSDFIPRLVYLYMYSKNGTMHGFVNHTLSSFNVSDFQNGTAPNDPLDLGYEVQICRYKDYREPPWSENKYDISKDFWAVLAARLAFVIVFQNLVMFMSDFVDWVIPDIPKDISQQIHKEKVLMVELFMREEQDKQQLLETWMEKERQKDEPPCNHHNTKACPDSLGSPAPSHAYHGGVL
Assay: Automated whole-cell patch clamp (Qpatch) TMEM16A potentiator assay in recombinant cells
Assay type: cell-based
Conditions: FRT cells stably expressing human TMEM16A, intracellular calcium at EC20; for % Potentiation @ 3.33 μM Avg: 3.33 μM solution of test compound, percentage increase of baseline TMEM16A current, peak current at +70 mV; for EC50: calculated from cumulative concentration response curve, whole-cell patch clamp
Experimental: Automated Whole-Cell Patch Clamp Assay to Detect TMEM16A Activity in Recombinant Cells
Cell Culture and Preparation
Fisher rat thyroid (FRT) cells stably expressing human TMEM16A (TMEM16Aabc variant; Dr Luis Galietta, Insituto Giannina, Italy) were cultured in T-75 flasks in Hams F-12 media with Coon's modification (Sigma) supplemented with 10% (v/v) foetal bovine serum, penicillin-streptomycin (10,000 U/mL/10000 μg/mL), G-418 (750 μg/mL), L-glutamine (2 mM) and sodium bicarbonate solution (7.5% v/v). At ˜90% confluence cells were harvested for experiments by detachment with a 2:1 (v/v) mixture of Detachin (BMS Biotechnology) and 0.25% (w/v) trypsin-EDTA. Cells were diluted to a density of 3.5-4.5×10^6 cells/mL with media consisting of CHO-S-SFM II (Sigma), 25 mM HEPES (Sigma) and Soy bean trypsin inhibitor (Sigma).
Whole-Cell Patch Clamp Recording
FRT-TMEM16A cells were whole-cell patch clamped using an automated planar patch clamp system (Qpatch, Sophion). Briefly, once high resistance (GOhm) seals were established between the cells and the planar recording array the patch was ruptured using suction pulses to establish the whole-cell recording configuration of the patch clamp technique. The assay employed the following solutions (all reagents Sigma):
Intracellular solution (mM): N-methyl-D-glucamine 130, CaCl2 18.2, MgCl2 1, HEPES 10, EGTA 10, BAPTA 20, Mg-ATP 2, pH 7.25, 325 mOsm with sucrose.
Extracellular solution (mM): N-methyl-D-glucamine 130, CaCl2 2, MgCl2 1, HEPES 10, pH 7.3, 320 mOsm with sucrose.
The intracellular solution buffers intracellular calcium at levels required to give ˜20% activation of the maximal TMEM16A mediated current (EC20 for calcium ions). Cells were voltage clamped at a holding potential of −70 mV and a combined voltage step (to +70 mV)/ramp (−90 my to +90 mV) was applied at 0.05 Hz. After a period of current stabilisation test compounds, solubilised in 100% (v/v) DMSO and subsequently diluted into extracellular solution, were applied to generate a cumulative concentration response curve. Each concentration of test compound was incubated for 5 minutes before addition of the next concentration. After the final concentration was tested a supramaximal concentration of either a known active positive modulator or the TMEM16A inhibitor, CaCCinhA01 (Del La Fuente et al, 2008) was added to define the upper and lower limits of the assay.
Compound activity was quantified by measuring the increase in current upon compound addition and expressing this as a percentage increase of baseline TMEM16A current level. Percentage increases in current were determined for each concentration and the data plotted as a function of concentration using either the Qpatch software or Graphpad Prism v6.05 providing the concentration which gave 50% of its maximal effect (EC50) and maximum efficacy (percentage of baseline increase).
In FIG. 1, IBL equals baseline current, I[#1] equals the peak current during test compound concentration 1 incubation period and so on.
Peak TMEM16A current at +70 mV was plotted as a function of time over the assay period. Baseline current (IBL) was measured after a period of stabilisation. The increase in current for each compound addition was determined by taking the peak current during the incubation period and subtracting the current from the previous recording period and then expressing this as a percentage of the baseline current. For test compound concentration 1 in FIG. 1 this is:
For each additional concentration tested the increase in current was determined by subtracting the current from the previous incubation period and normalising the baseline value—for test concentration 2 in FIG. 1 this is:
The values for each test concentration were plotted as a cumulative function of concentration e.g. for test concentration two this would be the sum of the peak changes measured during concentration one plus concentration two.

% Potentiation @ 3.33 μM Avg [%] | EC50 [nM] | Structure (SMILES)
118.3 | 918 | Cc1c2ccc(NC(=O)CC34CC5CC(CC(C5)C3)C4)cc2nn1Cc1ccccc1 [Example 17, 2-(1-Adamantyl)-N-(2-benzyl-3-methyl-indazol-6-yl)acetamide]
95.9 | 156 | CC(C)(C)c1nc2cc(NC(=O)Cc3cc(Cl)ccc3O)ccc2[nH]1 [Example 18, N-(2-tert-Butyl-1H-benzimidazol-5-yl)-2-(5-chloro-2-hydroxy-phenyl)acetamide]
181.6 | 936 | CC(C)(CNC(=O)OC(C)(C)C)CNC(=O)c1ccc2[nH]c(Cc3ccccc3)nc2c1 [Example 19, tert-Butyl N-[3-[(2-benzyl-1H-benzimidazole-5-carbonyl)amino]-2,2-dimethyl-propyl]carbamate]
85.9 | 776 | CC(C)(C)c1nc2ccc(C(=O)NCC3CCCCCC3)cc2[nH]1 [Example 20, 2-tert-Butyl-N-(cycloheptylmethyl)-3H-benzimidazole-5-carboxamide]
262 | 99 | CC(C)(C)c1cc(F)c(Cc2nc3cc(C(=O)NC4(C(F)(F)F)CC4)ccc3[nH]2)cc1O [Example 21, 2-[(4-tert-Butyl-2-fluoro-5-hydroxy-phenyl)methyl]-N-[1-(trifluoromethyl)cyclopropyl]-1H-benzimidazole-5-carboxamide]
272 | 150 | CC(C)(C)c1cc(F)c(Cc2nc3cc(C(=O)NCCC(F)(F)F)ccc3[nH]2)cc1O [Example 21.2, 2-[(4-tert-Butyl-2-fluoro-5-hydroxy-phenyl)methyl]-N-(3,3,3-trifluoropropyl)-1H-benzimidazole-5-carboxamide]
153 | 52 | CC(C)(C)c1cc(F)c(CC(=O)Nc2ccc3[nH]c(C4(C(F)(F)F)CC4)nc3c2)cc1O [Example 23, 2-(4-tert-Butyl-2-fluoro-5-hydroxy-phenyl)-N-[2-[1-(trifluoromethyl)cyclopropyl]-1H-benzimidazol-5-yl]acetamide]
69 | 1100 | O=C(NCCC(F)(F)F)c1ccc2[nH]c(Cc3ccccc3)nc2c1 [Example 24, 2-Benzyl-N-(3,3,3-trifluoropropyl)-1H-benzimidazole-5-carboxamide]
106 | 176 | O=C(NCC1CCCC1)c1ccc2[nH]c(Cc3ccccc3)nc2c1 [Example 24.1, 2-Benzyl-N-(cyclopentylmethyl)-1H-benzimidazole-5-carboxamide]
142 | 76 | O=C(NCC1CCCCCC1)c1ccc2[nH]c(Cc3cc(F)ccc3O)nc2c1 [Example 25.1, N-(Cycloheptylmethyl)-2-[(5-fluoro-2-hydroxy-phenyl)methyl]-1H-benzimidazole-5-carboxamide]
66 | 223 | O=C(NCC1CCCCCC1)c1ccc2[nH]c(Cc3cccc(O)c3)nc2c1 [Example 25.5, N-(Cycloheptylmethyl)-2-[(3-hydroxyphenyl)methyl]-1H-benzimidazole-5-carboxamide]

The next lines start with the compound.

Structure (SMILES) | % Potentiation @ 3.33 μM Avg [%] | EC50 [nM]
CC(C)(C)c1cc(F)c(Cc2nc3cc(C(=O)NCC4(C(F)(F)F)CC4)ccc3[nH]2)cc1O [Example 21.1, 2-[(4-tert-Butyl-2-fluoro-5-hydroxy-phenyl)methyl]-N-[[1-(trifluoromethyl)cyclopropyl]methyl]-1H-benzimidazole-5-carboxamide] | 275 | 227
CC(C)(O)c1cc(F)c(CC(=O)Nc2ccc3[nH]c(C4(C(F)(F)F)CC4)nc3c2)cc1O [Example 22, 2-[2-Fluoro-5-hydroxy-4-(1-hydroxy-1-methyl-ethyl)phenyl]-N-[2-[1-(trifluoromethyl)cyclopropyl]-1H-benzimidazol-5-yl]acetamide] | 149 | 168
O=C(NCC1CCCCCC1)c1ccc2[nH]c(Cc3ccccc3)nc2c1 [Example 24.2, 2-Benzyl-N-(cycloheptylmethyl)-1H-benzimidazole-5-carboxamide] | 137 | 120
O=C(NCC1CCCCCC1)c1ccc2[nH]c(Cc3c(O)cccc3F)nc2c1 [Example 25, N-(Cycloheptylmethyl)-2-[(2-fluoro-6-hydroxy-phenyl)methyl]-1H-benzimidazole-5-carboxamide] | 57 | 36
O=C(NCC1CCCCCC1)c1ccc2[nH]c(Cc3cccc(F)c3O)nc2c1 [Example 25.2, N-(Cycloheptylmethyl)-2-[(3-fluoro-2-hydroxy-phenyl)methyl]-1H-benzimidazole-5-carboxamide] | 83 | 200
O=C(NCC1CCCCCC1)c1ccc2[nH]c(Cc3ccccc3O)nc2c1 [Example 25.3, N-(Cycloheptylmethyl)-2-[(2-hydroxyphenyl)methyl]-1H-benzimidazole-5-carboxamide] | 104 | 76
O=C(NCC1CCCCCC1)c1ccc2[nH]c(Cc3ccc(F)cc3O)nc2c1 [Example 25.4, N-(Cycloheptylmethyl)-2-[(4-fluoro-2-hydroxy-phenyl)methyl]-1H-benzimidazole-5-carboxamide] | 120 | 130
CC(C)(C)Cc1nc2cc(NC(=O)Cc3cc(Cl)ccc3O)ccc2[nH]1 [Example 26, 2-(5-Chloro-2-hydroxy-phenyl)-N-[2-(2,2-dimethylpropyl)-1H-benzimidazol-5-yl]acetamide] | 69 | 98
CC(C)(C)c1nc2cc(NC(=O)Cc3cc(Cl)ccc3O)ccc2[nH]1 [Example 27, N-(2-tert-Butyl-1H-benzimidazol-5-yl)-2-(5-chloro-2-hydroxy-phenyl)acetamide] | 96 | 156
